Source: publication PMC12449377, “Psychedelic-like effects induced by 2,5-dimethoxy-4-iodoamphetamine, lysergic acid diethylamide, and psilocybin in male and female C57BL/6J mice” (Psychopharmacology, 2025)
Like-named read-outs stand apart in the source and are kept apart here.

How the values were obtained:
5-HT2A = target: T1, 5-HT2A (Mus musculus, UniProt P35363); assay: Competition binding vs [3H]M100907 in mouse brain membranes
T1 construct: tissue BioIVT; host or cells: whole C57BL/6 mouse brain minus cerebellum, male and female
Method: (§1) Competition binding studies were conducted in mouse brain tissue as previously described (Glatfelter et al. [2022b]). Briefly, the experiments utilized membranes prepared from whole C57BL/6 mouse brain minus cerebellum (BioIVT, Westbury, NY, USA). […] We assessed the ability of test drugs to compete for [^3H]M100907 binding at 5-HT2A (1 nM) or [^3H]8-OH-DPAT binding at 5-HT1A (0.5 nM). Radioligands were purchased commercially (PerkinElmer, Boston, MA, USA). Nonspecific binding was determined using 10 µM ketanserin for 5-HT2A and serotonin for 5-HT1A. All data represent 3 experiments performed in triplicate.
(§2) Concentration-response data were fit to a single site non-linear regression model. For the HTR studies, potencies were determined from the ascending limb of the dose-response curves using ED50 potency values from [agonist] vs. response (variable slope, four parameter) least squares fit non-linear regression analyses, whereas efficacy was defined by the top output parameter or Emax from the aforementioned analyses. […] Best-fit values for ED50 and Emax from non-linear regression analyses were compared by extra sum-of-squares F tests. Mean effects for each behavioral endpoint were compared using two-way ANOVA (dose x sex), followed by Sidak’s multiple comparisons post-hoc test. Mean effects for pooled mouse behavioral data were compared via Welch’s ANOVA with Dunnett’s T3 post-hoc test, comparing all doses to saline vehicle controls (0 mg/kg). Alpha was set to 0.05 for all analyses.

5-HT1A = target: T2, 5-HT1A (Mus musculus, UniProt Q64264); assay: Competition binding vs [3H]8-OH-DPAT in mouse brain membranes
T2 construct: tissue BioIVT; host or cells: whole C57BL/6 mouse brain minus cerebellum, male and female
T2 sequence (Q64264 1-421): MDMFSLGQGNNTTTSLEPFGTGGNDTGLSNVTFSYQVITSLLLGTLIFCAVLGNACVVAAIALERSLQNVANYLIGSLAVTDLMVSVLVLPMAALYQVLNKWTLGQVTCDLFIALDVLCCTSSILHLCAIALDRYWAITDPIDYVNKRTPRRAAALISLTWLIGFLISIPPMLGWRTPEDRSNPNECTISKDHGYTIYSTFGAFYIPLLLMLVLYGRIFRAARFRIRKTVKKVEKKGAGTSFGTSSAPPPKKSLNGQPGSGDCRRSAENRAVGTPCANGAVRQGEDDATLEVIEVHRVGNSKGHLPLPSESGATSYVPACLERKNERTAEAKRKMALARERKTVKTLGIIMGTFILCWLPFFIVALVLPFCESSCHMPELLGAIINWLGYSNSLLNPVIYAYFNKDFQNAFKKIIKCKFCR
Method: as §1, §2

C57BL/6J mice [1] = assay: Locomotor activity (distance traveled) in mice; assay type: in vivo, mouse; settings: for Locomotor Activity (cm) Mean: 30 min
Method: (§3) At 1–2 weeks prior to the beginning of experiments, mice were habituated to handling and receiving s.c. saline injections. On the day of an experiment, mice were acclimated to the testing room in their home cage for at least 30 min prior to the start of sessions. Prior to each session, mice were weighed, and resting body temperatures were recorded. Mice were then placed into experimental chambers for acclimation. Behavioral testing was carried out in TruScan mouse locomotor arenas equipped with photobeam arrays (Coulbourn Instruments, Holliston, MA, USA) that were modified with cylindrical inserts and transparent flooring to aid in semi-automated HTR detection as previously described (Glatfelter et al. [2022a]). After 5 min of acclimation, basal body temperature was recorded followed by s.c. injection of drug or vehicle, and mice were returned to test chambers for 30 min. Dose ranges for each drug were 0.03–10 mg/kg for DOI, 0.03–10 mg/kg for psilocybin, and 0.003–1 mg/kg for LSD. Mice were randomly assigned to specific doses at the beginning of the experiment and received different doses at each session.
(§4) During each session, locomotor activity was quantified via photobeam tracking of distance traveled in cm. Overhead GoPro Hero Black 7 video recordings (120 fps, 960p resolution) were analyzed using a commercially available software package from Clever Sys Inc. (Reston, VA, USA) for the measurement of HTR activity. Mouse body temperature was also collected post-session to calculate temperature change values (basal - post session temperature reading).
as §2

C57BL/6J mice [2] = settings: range over Table 1 and earlier studies; ref Glatfelter et al. [2022b], Sherwood et al. [2020]; cited from earlier work
C57BL/6J mice [3] = assay: Body temperature change in mice; assay type: in vivo, mouse; settings: post 30 min session
Method: All mice were injected s.c. with temperature transponders (14 × 2 mm, model IPTT-300, Avidity Science, Waterford Wisconsin, USA) under brief isoflurane immobilization, and were given at least 1 week to recover (Glatfelter et al. [2022b]). Mice were single housed post-implant, and for the duration of the experiments, to protect their devices from being removed by cage mates. Temperature was measured noninvasively using a handheld reader which is sensitive to the transponder signals.
as §3, §4, §2

C57BL/6J mice [4] = assay: Head twitch response (HTR) in mice; assay type: in vivo, mouse; settings: for HTR (total events) Mean: 30 min; for ED50: Mus musculus, sc; for HTR ♀ Emax (95% CI) / HTR ♂ Emax (95% CI): top of regression fit
Method: Each drug was tested using groups of 12 mice per sex (i.e., 24 total mice per drug). Experimental sessions were conducted once every 1–2 weeks for 2 months per drug. Experimental sessions were spaced apart by at least 1 week to minimize the potential for tolerance to drug effects (Canal and Morgan [2012]; Darmani et al. [1990a]; de la Fuente Revenga et al. [2022]). Experiments were conducted during the light phase (1300–1700 local time; lights on = 0700 in a 12/12 light/dark cycle).
as §3, §4, §2

T1 sequence (P35363 whole entry): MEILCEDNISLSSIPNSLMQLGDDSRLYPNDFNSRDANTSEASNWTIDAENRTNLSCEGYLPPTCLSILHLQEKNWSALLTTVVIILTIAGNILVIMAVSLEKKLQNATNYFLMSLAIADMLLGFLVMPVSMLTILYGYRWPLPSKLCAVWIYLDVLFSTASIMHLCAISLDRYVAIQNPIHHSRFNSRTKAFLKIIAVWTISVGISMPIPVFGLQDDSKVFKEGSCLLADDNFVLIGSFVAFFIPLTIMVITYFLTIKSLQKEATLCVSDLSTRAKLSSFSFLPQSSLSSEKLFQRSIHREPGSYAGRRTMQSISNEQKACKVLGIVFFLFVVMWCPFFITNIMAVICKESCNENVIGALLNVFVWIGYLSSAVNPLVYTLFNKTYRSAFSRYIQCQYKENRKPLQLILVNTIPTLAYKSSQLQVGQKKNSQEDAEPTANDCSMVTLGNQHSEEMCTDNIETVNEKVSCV

CN(C)CCc1c[nH]c2cccc(O)c12 [Psilocin]
Ki (5-HT2A; 5-HT2A binding affinity (Ki), males and females, male and female mouse brain membranes, summary statement): 1 to 100 nM | Ki (5-HT2A; [3H]M100907 Binding ♀ m5-HT2A Ki, female mouse brain membranes): 113 nM | Ki (5-HT2A; [3H]M100907 Binding ♂ m5-HT2A Ki, male mouse brain membranes): 110 nM | Ki (5-HT1A; 5-HT1A binding affinity (Ki), males and females, male and female mouse brain membranes, summary statement): 1 to 100 nM | Ki (5-HT1A; [3H]8-OH-DPAT Binding ♀ m5-HT1A Ki, female mouse brain membranes): 100 nM | Ki (5-HT1A; [3H]8-OH-DPAT Binding ♂ m5-HT1A Ki, male mouse brain membranes): 113 nM

CN(C)CCc1c[nH]c2cccc(OP(=O)(O)O)c12 [Psilocybin, 4-phosphoryloxy-N,N-dimethyltryptamine]
Locomotor Activity (cm) Mean (C57BL/6J mice [1]; 0.03 mg/kg s.c., female mice): 2480.4 cm | Locomotor Activity (cm) Mean (C57BL/6J mice [1]; 0.03 mg/kg s.c., male mice): 2063.8 cm | Locomotor Activity (cm) Mean (C57BL/6J mice [1]; 0.03 mg/kg s.c., pooled sexes): 2272 cm | Locomotor Activity (cm) Mean (C57BL/6J mice [1]; 0.1 mg/kg s.c., female mice): 2686.5 cm | Locomotor Activity (cm) Mean (C57BL/6J mice [1]; 0.1 mg/kg s.c., male mice): 2877.2 cm | Locomotor Activity (cm) Mean (C57BL/6J mice [1]; 0.1 mg/kg s.c., pooled sexes): 2782 cm | Locomotor Activity (cm) Mean (C57BL/6J mice [1]; 0.3 mg/kg s.c., female mice): 3293.8 cm | Locomotor Activity (cm) Mean (C57BL/6J mice [1]; 0.3 mg/kg s.c., male mice): 3064.5 cm | Locomotor Activity (cm) Mean (C57BL/6J mice [1]; 0.3 mg/kg s.c., pooled sexes): 3179 cm | Locomotor Activity (cm) Mean (C57BL/6J mice [1]; 1 mg/kg s.c., female mice): 2900.9 cm | Locomotor Activity (cm) Mean (C57BL/6J mice [1]; 1 mg/kg s.c., male mice): 3532.9 cm | Locomotor Activity (cm) Mean (C57BL/6J mice [1]; 1 mg/kg s.c., pooled sexes): 3188 cm | Locomotor Activity (cm) Mean (C57BL/6J mice [1]; 3 mg/kg s.c., female mice): 2041.8 cm | Locomotor Activity (cm) Mean (C57BL/6J mice [1]; 3 mg/kg s.c., male mice): 2018.9 cm | Locomotor Activity (cm) Mean (C57BL/6J mice [1]; 3 mg/kg s.c., pooled sexes): 2029 cm | Locomotor activity effect (C57BL/6J mice [1]; 10 mg/kg s.c.): decreased locomotor activity | Locomotor Activity (cm) Mean (C57BL/6J mice [1]; 10 mg/kg s.c., female mice): 962.1 cm | Locomotor Activity (cm) Mean (C57BL/6J mice [1]; 10 mg/kg s.c., male mice): 741.5 cm | Locomotor Activity (cm) Mean (C57BL/6J mice [1]; 10 mg/kg s.c., pooled sexes): 851.8 cm | Locomotor activity effect (C57BL/6J mice [1]; 0.3–1 mg/kg s.c.): mild increases in locomotor activity | ED50 doses inducing HTR in C57BL/6J mice (C57BL/6J mice [2]): 0.22 to 0.40 mg/kg | Body Temp Δ (°C) Mean (C57BL/6J mice [3]; 0.03 mg/kg s.c., female mice): 0.2 °C | Body Temp Δ (°C) Mean (C57BL/6J mice [3]; 0.03 mg/kg s.c., male mice): -0.4 °C | Body Temp Δ (°C) Mean (C57BL/6J mice [3]; 0.03 mg/kg s.c., pooled sexes): -0.1 °C | Body Temp Δ (°C) Mean (C57BL/6J mice [3]; 0.1 mg/kg s.c., female mice): 0.1 °C | Body Temp Δ (°C) Mean (C57BL/6J mice [3]; 0.1 mg/kg s.c., male mice): 0.3 °C | Body Temp Δ (°C) Mean (C57BL/6J mice [3]; 0.1 mg/kg s.c., pooled sexes): 0.2 °C | Body Temp Δ (°C) Mean (C57BL/6J mice [3]; 0.3 mg/kg s.c., female mice): 0.04 °C | Body Temp Δ (°C) Mean (C57BL/6J mice [3]; 0.3 mg/kg s.c., male mice): 0.1 °C | Body Temp Δ (°C) Mean (C57BL/6J mice [3]; 0.3 mg/kg s.c., pooled sexes): 0.1 °C | Body Temp Δ (°C) Mean (C57BL/6J mice [3]; 1 mg/kg s.c., female mice): 0.0 °C | Body Temp Δ (°C) Mean (C57BL/6J mice [3]; 1 mg/kg s.c., male mice): -1.0 °C | Body Temp Δ (°C) Mean (C57BL/6J mice [3]; 1 mg/kg s.c., pooled sexes): -0.4 °C | Body Temp Δ (°C) Mean (C57BL/6J mice [3]; 3 mg/kg s.c., female mice): -1.0 °C | Body Temp Δ (°C) Mean (C57BL/6J mice [3]; 3 mg/kg s.c., male mice): -1.3 °C | Body Temp Δ (°C) Mean (C57BL/6J mice [3]; 3 mg/kg s.c., pooled sexes): -1.2 °C | Body Temp Δ (°C) Mean (C57BL/6J mice [3]; 10 mg/kg s.c., female mice): -3.3 °C | Body Temp Δ (°C) Mean (C57BL/6J mice [3]; 10 mg/kg s.c., male mice): -4.1 °C | Body Temp Δ (°C) Mean (C57BL/6J mice [3]; 10 mg/kg s.c., pooled sexes): -3.7 °C | HTR (total events) Mean (C57BL/6J mice [4]; 0.03 mg/kg s.c., female mice): 8.0 total events | HTR (total events) Mean (C57BL/6J mice [4]; 0.03 mg/kg s.c., male mice): 7.6 total events | HTR (total events) Mean (C57BL/6J mice [4]; 0.03 mg/kg s.c., pooled sexes): 7.8 total events | HTR (total events) Mean (C57BL/6J mice [4]; 0.1 mg/kg s.c., female mice): 11.8 total events | HTR (total events) Mean (C57BL/6J mice [4]; 0.1 mg/kg s.c., male mice): 13.0 total events | HTR (total events) Mean (C57BL/6J mice [4]; 0.1 mg/kg s.c., pooled sexes): 12.4 total events | HTR (total events) Mean (C57BL/6J mice [4]; 0.3 mg/kg s.c., female mice): 27.3 total events | HTR (total events) Mean (C57BL/6J mice [4]; 0.3 mg/kg s.c., male mice): 26.8 total events | HTR (total events) Mean (C57BL/6J mice [4]; 0.3 mg/kg s.c., pooled sexes): 27.1 total events | HTR (total events) Mean (C57BL/6J mice [4]; 1 mg/kg s.c., female mice): 30.2 total events | HTR (total events) Mean (C57BL/6J mice [4]; 1 mg/kg s.c., male mice): 39.2 total events | HTR (total events) Mean (C57BL/6J mice [4]; 1 mg/kg s.c., pooled sexes): 34.7 total events | HTR (total events) Mean (C57BL/6J mice [4]; 3 mg/kg s.c., female mice): 47.2 total events | HTR (total events) Mean (C57BL/6J mice [4]; 3 mg/kg s.c., male mice): 29.4 total events | HTR (total events) Mean (C57BL/6J mice [4]; 3 mg/kg s.c., pooled sexes): 38.3 total events | HTR (total events) Mean (C57BL/6J mice [4]; 10 mg/kg s.c., female mice): 21.8 total events | HTR (total events) Mean (C57BL/6J mice [4]; 10 mg/kg s.c., male mice): 18.7 total events | HTR (total events) Mean (C57BL/6J mice [4]; 10 mg/kg s.c., pooled sexes): 20.3 total events | ED50 (C57BL/6J mice [4]; female mice, ascending limb of dose-response curve, read-out: HTR ♀ ED50 (95% CI)): 0.31 mg/kg | ED50 (C57BL/6J mice [4]; male mice, ascending limb of dose-response curve, read-out: HTR ♂ ED50 (95% CI)): 0.17 mg/kg | ED50 (C57BL/6J mice [4]; pooled male and female mice, read-out: HTR ♂+♀ ED50 (95% CI)): 0.22 mg/kg | Duration of HTR effect in the session (C57BL/6J mice [4]; peak/active doses, 30 min session): trended to baseline levels by the end of the testing session | Time of peak effects on HTR post drug administration (C57BL/6J mice [4]; s.c., both sexes, 30 min session): 5 to 10 min | HTR ♀ Emax (95% CI) (C57BL/6J mice [4]; s.c., female mice): 43 (35–54) HTR events | HTR ♀ Emax (95% CI) (C57BL/6J mice [4]; s.c., female mice, listed as psilocybin): 43 HTR events | HTR ♂ Emax (95% CI) (C57BL/6J mice [4]; s.c., male mice): 35 (30–40) HTR events | HTR ♂ Emax (95% CI) (C57BL/6J mice [4]; s.c., male mice, listed as psilocybin): 35 HTR events | HTR ♂+♀ Emax (95% CI) (C57BL/6J mice [4]; s.c., pooled male and female mice): 38 (33–47) HTR events
